Results as given in patent US7396837B2, “Antitumoral analogs of lamellarins” (Pharma Mar, S.A.U., priority 2002, dated 2008).
Like-named read-outs stand apart in the source and are kept apart here.

Key:
Format in all cases: cell-based
[1] = system: K-562; assay: SRB colorimetric cell growth inhibition assay, K-562; conditions: Homo sapiens; for GI50: GI=growth inhibition, read-out: GI50 K-562; for IC (TGI): TGI=total growth inhibition (cytostatic effect), read-out: TGI K-562; for CC50: LC=cell killing (cytotoxic effect)
Method in brief: (§1)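 Cells are kept under uninterrupted exposure to compound. Staining with sulforhodamine B then measures cell growth and viability. Triplicate data give mean ± SD, from which growth inhibition, total growth inhibition and lethal concentration values follow.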

[2] = system: A-549; assay: SRB colorimetric cell growth inhibition assay, A-549; conditions: Homo sapiens; for GI50: GI=growth inhibition, read-out: GI50 A-549; for IC (TGI): TGI=total growth inhibition (cytostatic effect), read-out: TGI A-549; for CC50: LC=cell killing (cytotoxic effect)
Method in brief: as §1

[3] = system: SK-MEL-28; assay: SRB colorimetric cell growth inhibition assay, SK-MEL-28; conditions: Homo sapiens; for GI50: GI=growth inhibition, read-out: GI50 MEL-28; for CC50: LC=cell killing (cytotoxic effect); for IC (TGI): SK-MEL-28, MEL-28, TGI=total growth inhibition (cytostatic effect), read-out: TGI MEL-28
Method in brief: as §1

[4] = system: HT-29; assay: SRB colorimetric cell growth inhibition assay, HT-29; conditions: Homo sapiens; for CC50: LC=cell killing (cytotoxic effect); for GI50 / IC (TGI): HT-29; for GI50: GI=growth inhibition, read-out: GI50 HT-29; for IC (TGI): TGI=total growth inhibition (cytostatic effect), read-out: TGI HT-29
Method in brief: as §1

[5] = system: LoVo; assay: SRB colorimetric cell growth inhibition assay, LoVo; conditions: Homo sapiens; for CC50: LC=cell killing (cytotoxic effect); for GI50: GI=growth inhibition, read-out: GI50 LOVO; for IC (TGI): TGI=total growth inhibition (cytostatic effect), read-out: TGI LOVO
Method in brief: as §1

[6] = system: LoVo-Dox; assay: SRB colorimetric cell growth inhibition assay, LoVo-Dox (MDR)
Method in brief: as §1

[7] = system: DU-145; assay: SRB colorimetric cell growth inhibition assay, DU-145; conditions: Homo sapiens; for CC50: LC=cell killing (cytotoxic effect); for GI50: GI=growth inhibition, read-out: GI50 DU-145; for IC (TGI): TGI=total growth inhibition (cytostatic effect), read-out: TGI DU-145
Method in brief: as §1

[8] = system: SK-BR-3; assay: SRB colorimetric cell growth inhibition assay, SK-BR-3; conditions: Homo sapiens; for CC50: LC=cell killing (cytotoxic effect); for GI50: GI=growth inhibition, read-out: GI50 SK-BR-3; for IC (TGI): TGI=total growth inhibition (cytostatic effect), read-out: TGI SK-BR-3
Method in brief: as §1

[9] = system: IGROV; assay: SRB colorimetric cell growth inhibition assay, IGROV
Method in brief: as §1

[10] = system: IGROV-ET; assay: SRB colorimetric cell growth inhibition assay, IGROV-ET (ET-743 resistant); conditions: Homo sapiens; for GI50: GI=growth inhibition, read-out: GI50 IGROV-ET; for IC (TGI): TGI=total growth inhibition (cytostatic effect), read-out: TGI IGROV-ET; for CC50: LC=cell killing (cytotoxic effect)
Method in brief: as §1

[11] = system: PANC-1; assay: SRB colorimetric cell growth inhibition assay, PANC-1; conditions: Homo sapiens; for IC (TGI): TGI=total growth inhibition (cytostatic effect), read-out: TGI PANC-1; for CC50: LC=cell killing (cytotoxic effect); for GI50: GI=growth inhibition, read-out: GI50 PANC-1
Method in brief: as §1

[12] = system: SKOV-3; assay: SRB colorimetric cell growth inhibition assay, SKOV-3; conditions: Homo sapiens; for CC50: SK-OV-3, read-out: LC50 SKOV-3; for IC (TGI): TGI=total growth inhibition (cytostatic effect)
Text: Inhibition of Cell Growth by Colorimetric Assay.
A colorimetric type of assay, using sulforhodamine B (SRB) reaction has been adapted for a quantitative measurement of cell growth and viability (following the technique described by P. A. Skehan, et al., J. Natl. Cancer Inst. 1990, 82, 1107-1112).
This form of assay employs 96 well cell culture microplates of 9 mm diameter (T. Mosmann et al., J. of Immunological Methods 1983, 65, 55-63; G. T. Faircloth et al., J. of Tissue and Culture Methods 1988, 11, 201-205).
Most of the cell lines are obtained from American Type Culture Collection (ATCC) derived from different human cancer types.
The values for mean +/− SD of data from triplicate wells are calculated. Some parameters for cellular responses can be calculated: GI=growth inhibition, TGI=total growth inhibition (cytostatic effect) and LC=cell killing (cytotoxic effect).

[13] = Homo sapiens, LOVO-DOX; GI=growth inhibition; read-out: GI50 LOVO-DOX

SMILES: COc1cc(-c2c3c4cc(OC)c(OC(=O)[C@@H](N)CCCCNC(=O)OCc5ccccc5)cc4oc(=O)c3n3ccc4c(OC(=O)[C@@H](N)CCCCNC(=O)OCc5ccccc5)c(OC)c(OC)cc4c23)ccc1OC(=O)[C@@H](N)CCCCNC(=O)OCc1ccccc1 [Compound 44]
- GI50 ([1]; K562, K-562): 0.182 µM
- IC (TGI) ([1]; K562, K-562): 0.686 µM
- CC50 ([1]; K562, read-out: LC50 K-562, K-562): 5.36 µM
- GI50 ([2]; A549, A-549): 5.44 µM
- IC (TGI) ([2]; A549, A-549): 7.6 µM
- CC50 ([2]; A549, read-out: LC50 A-549, A-549): 7.6 µM
- GI50 ([3]; SK-MEL-28, MEL-28): 0.48 µM
- CC50 ([3]; SK-MEL-28, read-out: LC50 MEL-28, MEL-28): 7.6 µM
- IC (TGI) [3]: 3.21 µM
- CC50 ([4]; HT-29, read-out: LC50 HT-29, HT-29): 7.6 µM
- GI50 [4]: 7.6 µM
- IC (TGI) [4]: 7.6 µM
- CC50 ([5]; LoVo, read-out: LC50 LOVO, LOVO): 7.6 µM
- GI50 ([5]; LOVO): 0.374 µM
- IC (TGI) ([5]; LOVO): 3.18 µM
- GI50 [6, 13]: 0.608 µM
- CC50 ([6]; Homo sapiens, read-out: LC50 LOVO-DOX, LOVO-DOX; LC=cell killing (cytotoxic effect)): 7.6 µM
- IC (TGI) ([6]; Homo sapiens; LOVO-DOX; TGI=total growth inhibition (cytostatic effect); read-out: TGI LOVO-DOX): 2.51 µM
- CC50 ([7]; DU-145, read-out: LC50 DU-145, DU-145): 7.6 µM
- GI50 ([7]; DU-145): 0.0485 µM
- IC (TGI) ([7]; DU-145): 0.273 µM
- CC50 ([8]; SK-BR-3, read-out: LC50 SK-BR-3, SK-BR-3): 7.6 µM
- GI50 ([8]; SK-BR-3): 0.122 µM
- IC (TGI) ([8]; SK-BR-3): 0.866 µM
- CC50 ([9]; Homo sapiens, IGROV, read-out: LC50 IGROV, IGROV; LC=cell killing (cytotoxic effect)): 5.06 µM
- GI50 ([9]; Homo sapiens; IGROV; GI=growth inhibition; read-out: GI50 IGROV): 1.06 µM
- IC (TGI) ([9]; Homo sapiens; IGROV; TGI=total growth inhibition (cytostatic effect); read-out: TGI IGROV): 2.32 µM
- GI50 ([10]; IGROV-ET): 1.18 µM
- IC (TGI) ([10]; IGROV-ET): 3.58 µM
- CC50 ([10]; read-out: LC50 IGROV-ET, IGROV-ET): 7.6 µM
- IC (TGI) ([11]; PANC-1, PANC-1): 4.35 µM
- CC50 ([11]; PANC-1, read-out: LC50 PANC-1, PANC-1): 7.6 µM
- GI50 ([11]; PANC-1): 1.17 µM
- GI50 ([12]; SK-OV-3, read-out: GI50 SKOV-3): 0.0988 µM
- CC50 [12]: 7.6 µM
- IC (TGI) ([12]; SK-OV-3, read-out: TGI SKOV-3, SKOV-3): 1.15 µM

SMILES: COc1cc(-c2c3c4cc(OC)c(OC(=O)[C@@H](N)CC(C)C)cc4oc(=O)c3n3ccc4c(OC(=O)[C@@H](N)CC(C)C)c(OC)c(OC)cc4c23)ccc1OC(=O)[C@@H](N)CC(C)C [Compound 45]
- GI50 ([1]; K562, K-562): 0.315 µM
- CC50 ([1]; K562, K-562, read-out: LC50 K-562): 8.79 µM
- IC (TGI) ([1]; K562, K-562): 1.73 µM
- GI50 ([2]; A549, A-549): 4.35 µM
- CC50 ([2]; A549, A-549, read-out: LC50 A-549): 11.5 µM
- IC (TGI) ([2]; A549, A-549): 11.5 µM
- GI50 ([3]; SK-MEL-28, MEL-28): 0.898 µM
- CC50 ([3]; SK-MEL-28, MEL-28, read-out: LC50 MEL-28): 11.5 µM
- IC (TGI) [3]: 11.5 µM
- CC50 ([4]; HT-29, HT-29, read-out: LC50 HT-29): 11.5 µM
- GI50 [4]: 11.5 µM
- IC (TGI) [4]: 11.5 µM
- GI50 ([5]; LoVo): 0.771 µM
- CC50 ([5]; LoVo, read-out: LC50 LOVO): 11.5 µM
- IC (TGI) ([5]; LoVo): 6.71 µM
- GI50 [6, 13]: 0.778 µM
- CC50 ([6]; Homo sapiens, LOVO-DOX; LC=cell killing (cytotoxic effect); read-out: LC50 LOVO-DOX): 11.5 µM
- IC (TGI) ([6]; Homo sapiens, LOVO-DOX; TGI=total growth inhibition (cytostatic effect); read-out: TGI LOVO-DOX): 4.51 µM
- GI50 ([7]; DU-145, DU-145): 0.105 µM
- CC50 ([7]; DU-145, DU-145, read-out: LC50 DU-145): 11.5 µM
- IC (TGI) ([7]; DU-145, DU-145): 0.549 µM
- GI50 ([8]; SK-BR-3, SK-BR-3): 0.414 µM
- CC50 ([8]; SK-BR-3, SK-BR-3, read-out: LC50 SK-BR-3): 11.5 µM
- IC (TGI) ([8]; SK-BR-3, SK-BR-3): 1.58 µM
- GI50 ([9]; Homo sapiens, IGROV; GI=growth inhibition; read-out: GI50 IGROV): 1.57 µM
- CC50 ([9]; Homo sapiens, IGROV; LC=cell killing (cytotoxic effect); read-out: LC50 IGROV): 10.9 µM
- IC (TGI) ([9]; Homo sapiens, IGROV; TGI=total growth inhibition (cytostatic effect); read-out: TGI IGROV): 4.12 µM
- GI50 ([10]; IGROV-ET): 2.58 µM
- CC50 ([10]; IGROV-ET, read-out: LC50 IGROV-ET): 11.5 µM
- IC (TGI) ([10]; IGROV-ET): 8.07 µM
- GI50 ([11]; PANC-1, PANC-1): 2.03 µM
- CC50 ([11]; PANC-1, PANC-1, read-out: LC50 PANC-1): 11.5 µM
- IC (TGI) ([11]; PANC-1, PANC-1): 9.75 µM
- GI50 ([12]; SK-OV-3, SKOV-3, GI=growth inhibition, read-out: GI50 SKOV-3): 0.175 µM
- CC50 [12]: 11.5 µM
- IC (TGI) ([12]; SK-OV-3, SKOV-3, read-out: TGI SKOV-3): 2.2 µM
